Reference: patent US5159102A, “7-thiaprostaglandins E, and process for producing same” (Teijin Limited, priority 1990, dated 1992)
Values after ≈ are worked out from the molar mass of the structure shown.

What was measured:
[1] = tested on: ulcer formation induced by indomethacin (stomach); assay: Inhibiting effect on ulcer formation induced by indomethacin (antiulcerative effect); type: in vivo; settings: Rattus norvegicus, po; P.O., Wister male rats; 30 min before indomethacin 20 mg/kg p.o.; ulcer length 5 h after
Procedure: The inhibiting effect on ulcer formation induced by indomethacin was examined by using rats. Wister male rats (7 weeks old and body weight of 220 g) were abstained from food for 24 hours except giving water and then subjected to experiments.
The sample compounds to be tested were dissolved in a phosphoric acid buffer (pH 7.4) containing 0.9% NaCl and the solution was orally administered to the rats. 30 minutes after the administration, indomethacin was orally administered to the rats at a dose of 20 mg/kg. 5 hours after the administration of the indomethacin, the rats were killed and the ulcer formation in the stomach was examined by determining the length of the ulcer formation portion under a stereomicroscope. From this measurement, the inhibition of ulcer formation by the sample compounds were calculated to determine the ED values.

[2] = tested on: blood platelet aggregation (ADP, PRP); assay: In vitro blood platelet aggregation inhibition effect; type: cell-based, native Japanese white male domestic rabbits; settings: Oryctolagus cuniculus, rabbit PRP, 10 μM ADP, 37° C., read-out: Anti-platelet aggregation effect IC50
Procedure: The in vitro blood platelet aggregation inhibition effect of the sample compounds to be tested was examined by using rabbits. That is, blood was collected from the ear vein of native Japanese white male domestic rabbits weighing 2.5 to 3.5 kg. The collected blood was 9 parts by volume per 1 part by volume of a 3.8% sodium citrate solution. The blood was centrifuged at 1000 r.p.m. for 10 minutes. The upper layer portion was separated as PRP (rich in platelet blood plasma). The lower layer portion was further centrifuged at 2800 r.p.m. for 10 minutes to divide it into two layers. The upper layer portion was separated as PPP (poor in platelet blood plasma). The number of the platelet was diluted with PPP to […]. After the adjustment, 25 μl of the sample compound was added to 250 μl of PRP, which was preincubated at a temperature of 37° C. for 2 minutes. Thereafter, 10 μM of ADP (final) was added to the preincubated PRP to record the variation of the transmittance by means of aggregometer. […]
When the activity of the sample compounds was determined, the ethanol solution was diluted with a phosphoric acid buffer (PH 7.4). The ethanol solution diluted with the buffer was left to stand at a temperature of 0° C. for 4 hours, after which the activity of the sample compounds was determined in the same manner.
The platelet aggregation inhibition was calculated by the following formula: […]

## CCCCC(O)C/C=C/[C@H]1[C@H](O)CC(=O)[C@@H]1SCCCCCC(=O)OC (stereo partly shown)
[1]
  ED50: 0.01 mg/kg
[2]
  IC50: 17 µg/mL (≈ 44 µM)

## CCCCCC(O)/C=C/C1CCC(=O)C1SCCCCCC(=O)OC (stereo not shown)
[1]
  ED50: 0.3 mg/kg
[2]
  IC50: > 100 µg/mL
